For data set [1] the following is noted: in vitro, human plasma; cited from earlier work.
The subject of data set [2] is human glioma xenograft (U87MG). The note with it: after 9 days of dosing at 50 mg/kg BID, ref Crenolanib Investigator's Brochure, AROG Pharmaceuticals, LLC, 2011; cited from earlier work.
The conditions of data set [3]: cited from earlier work.
The nature of data set [4]: CSF crenolanib disposition. The note with it: for CSF crenolanib concentration: stratum A2 patient. The class given is in vivo, human.

Where only a bound is given, the exact number is not on record here.

`CC1(COc2ccc3c(c2)ncn3-c2ccc3cccc(N4CCC(N)CC4)c3n2)COC1` [crenolanib]: the unbound fraction in data set [1] is recorded as 4.1%. The “inhibition of xenograft growth” value in data set [2] is 47%. Further, the “incidence of significant elevations of liver enzymes” value in data set [3] (adults with advanced solid tumors) is below 5%. Moreover, in data set [3] (adults, uncoated tablets with food), the “Maximum tolerated dose (MTD)” value was “not reached”. Also, the Kp in data set [4] (human, cerebrospinal fluid / serum (total), oral, 100 mg/m^2) turned out to be 0.025. In data set [4] (simultaneous with day 28 CSF sampling, third cycle), the serum crenolanib concentration was determined as 546 nM. The CSF crenolanib concentration in data set [4] (third cycle day 14, approximately 19 h after dose) came out at 9.15 nM; in data set [4] (third cycle day 28, approximately 19 h after dose) it was 13.6 nM.

The record behind these values is paper PMC8717895 (Neuro-oncology Advances, 2021).
